We go through ten compounds from patent US10064873B2, “Compounds and compositions for treating HIV with derivatives of Betulin” (GlaxoSmithKline LLC, priority 2011, dated 2018).

SMILES strings stand for the structures. Read-outs that look alike come from different tables or passages of the source.

Data set [1] relates to HIV. Nature of the data set: Standard PBMC assay (0% human serum). The settings on record: Human immunodeficiency virus 1, PBMC, 168 h, PBMCs, 7 days. The format is cell-based.
Procedure: Following incubation in both the standard and modified assays, supernatants were assayed for reverse transcriptase (RT) activity and p24 antigen content by ELISA and spectrophotometric analysis at 450 nM.
A further data set deals with HIV NL4-3 wt. The data set is described as follows: MT4 antiviral assay, NL4-3 strain wild type. The format is cell-based, HIV-1.
In data set [2] the test system is NL4-3 strain with V370A site directed mutant polymorphism. The data set is described as follows: MT4 antiviral assay, NL4-3 strain with V370A site directed mutant polymorphism. The format is cell-based, HIV-1. The settings on record: Human immunodeficiency virus 1, NL43, MT4 cells.
In data set [3] the test system is HIV. Particulars: cited from earlier work.
For another data set, the system named is HIV-1 strain JR-CSF. The data set is described as follows: Modified PBMC (PBL) assay with human serum titration. The format is cell-based. Particulars: for IC50: Human immunodeficiency virus 1, PBMC. The protocol:
In this assay, 8×10^6 cells from pooled donors were incubated with virus for 1 hour, followed by centrifugation for 1 hour. Cells were then gently re-suspended and incubated an additional 2 hours.

For another data set, the system named is HIV-1 (strain IIIB). The data set is described as follows: MT4 Cell Antiviral Assay (propidium iodide or MTS readout). The class given is cell-based. Particulars: Human immunodeficiency virus 1, IIIB, read-out: expected range of IC50 values (control and standard).
The mark [4] stands for this setting: Human immunodeficiency virus 1, NL43, MT4 cells, read-out: EC50 NL4-3 wt.
The mark [5] stands for this setting: Human immunodeficiency virus 1, NL43, MT4, read-out: EC50 NL4-3 wt (nM).

As for `C=C(C)[C@@H]1CC[C@]2(C(=O)O)CC[C@]3(C)[C@H](CC[C@@H]4[C@@]5(C)CC[C@H](OC(=O)CC(C)(C)C(=O)O)C(C)(C)[C@@H]5CC[C@]43C)[C@@H]12` [Bevirimat], the IC50 (commonly the concentration that inhibits the measured activity by half) in the data set on HIV [1] was 9.76 nM; in the data set with HIV-1 strain JR-CSF (10%, 20%, 30% and 40% human serum, unit mM, read-out: IC50 in the presence of human serum), 1380 to 13000 nM. Also, the EC50 came out at 223 nM in the data set with HIV NL4-3 wt (Human immunodeficiency virus 1, NL43, MT4 cells, Consensus Clade B Sp1 Genotype, read-out: MT4 NL. wt* EC50); 223 nM with HIV NL4-3 wt (Human immunodeficiency virus 1, NL43, MT4 cells, read-out: EC50, MT4 antiviral assay NL4-3 strain / HIV wild type potency); 6060 nM in data set [2] (read-out: EC50, MT4 antiviral assay NL4-3 strain with V370A polymorphism); 6060 nM in data set [2] (read-out: MT4 NL. V370A EC50). Also, in the data set with HIV [3] (clinical, McCallister et al. poster 2008), the Cmin target was > 20000 ng/mL. Also, the “mean reduction of HIV viral load” value with HIV [3] (patients with trough levels >=20 μg/mL and no baseline Gag polymorphisms at Q369, V370 or T371) is 1.3 log10/mL. Also, the “effect of human serum on IC50 values” in the data set on HIV-1 strain JR-CSF (10-40% human serum vs standard assay) is reported as “large increase in the IC50 values”. In addition, the “fold change in the IC50 value in the presence of 100% serum” value in the data set with HIV-1 strain JR-CSF (extrapolated, compared to control experiment) is 2,310 fold.
Regarding `CC(C)C1=C2[C@H]3CC[C@@H]4[C@@]5(C)CC[C@H](OC(=O)CC(C)(C)C(=O)O)C(C)(C)[C@@H]5CC[C@@]4(C)[C@]3(C)CC[C@@]2([C@@H](O)CN(CCN(C)C)Cc2ccc(Cl)cc2)CC1=O` [Compound 51, 4-(((3aR,5aR,5bR,7aR,9S,11aR,11bR,13aS)-3a-((R)-2-((4-Chlorobenzyl)(2-(dimethylamino)ethyl)amino)-1-hydroxyethyl)-1-isopropyl-5a,5b,8,8,11a-pentamethyl-2-oxo-3,3a,4,5,5a,5b,6,7,7a,8,9,10,11,11a,11b,12,13,13a-octadecahydro-2H-cyclopenta[a]chrysen-9-yl)oxy)-2,2-dimethyl-4-oxobutanoic acid], the IC50 with HIV-1 strain JR-CSF (read-out: estimated IC50 for 100% human serum, linear extrapolation from normalized IC50 values) was 0.33 nM; in the data set with HIV-1 strain JR-CSF (10%, 20%, 30% and 40% human serum, read-out: IC50 in the presence of human serum), 0.52 to 3.07 nM.
Regarding `CC(=O)N(CC[C@@]12CC[C@]3(C)[C@H](CC[C@@H]4[C@@]5(C)CC[C@H](OC(=O)CC(C)(C)C(=O)O)C(C)(C)[C@@H]5CC[C@]43C)C1=C(C(C)C)C(=O)C2)Cc1ccc(Cl)cc1` [Example 13, 4-(((3aR,5aR,5bR,7aR,9S,11aR,11bR,13aS)-3a-(2-(N-(4-Chlorobenzyl)acetamido)ethyl)-1-isopropyl-5a,5b,8,8,11a-pentamethyl-2-oxo-3,3a,4,5,5a,5b,6,7,7a,8,9,10,11,11a,11b,12,13,13a-octadecahydro-2H-cyclopenta[a]chrysen-9-yl)oxy)-2,2-dimethyl-4-oxobutanoic acid], in the data set with HIV NL4-3 wt (setting [4]), the EC50 amounted to 1.6 nM.
`CC(C)C1=C2[C@H]3CC[C@@H]4[C@@]5(C)CC[C@H](OC(=O)CC(C)(C)C(=O)O)C(C)(C)[C@@H]5CC[C@@]4(C)[C@]3(C)CC[C@@]2(CCN(C)Cc2ccc(Cl)cc2)CC1=O` [Example 12, 4-(((3aR,5aR,5bR,7aR,9S,11aR,11bR,13aS)-3a-(2-((4-Chlorobenzyl)(methyl)amino)ethyl)-1-isopropyl-5a,5b,8,8,11a-pentamethyl-2-oxo-3,3a,4,5,5a,5b,6,7,7a,8,9,10,11,11a,11b,12,13,13a-octadecahydro-2H-cyclopenta[a]chrysen-9-yl)oxy)-2,2-dimethyl-4-oxobutanoic acid]: the EC50 in the data set with HIV NL4-3 wt (setting [5]) is 4.5 nM.
On to `CC(C)C1=C2[C@H]3CC[C@@H]4[C@@]5(C)CC[C@H](OC(=O)CC(C)(C)C(=O)O)C(C)(C)[C@@H]5CC[C@@]4(C)[C@]3(C)CC[C@@]2(CCNCc2ccccc2)CC1=O` [Example 6, 4-(((3aR,5aR,5bR,7aR,9S,11aR,11bR,13aS)-3a-(2-(Benzylamino)ethyl)-1-isopropyl-5a,5b,8,8,11a-pentamethyl-2-oxo-3,3a,4,5,5a,5b,6,7,7a,8,9,10,11,11a,11b,12,13,13a-octadecahydro-2H-cyclopenta[a]chrysen-9-yl)oxy)-2,2-dimethyl-4-oxobutanoic acid], for which the EC50 with HIV NL4-3 wt (setting [5]) is 0.5 nM.
In the case of `CC(C)C1=C2[C@H]3CC[C@@H]4[C@@]5(C)CC[C@H](OC(=O)CC(C)(C)CC(=O)O)C(C)(C)[C@@H]5CC[C@@]4(C)[C@]3(C)CC[C@@]2([C@@H](O)CNCc2ccc(Cl)cc2)CC1=O` [Example 72, 5-(((3aR,5aR,5bR,7aR,9S,11aR,11bR,13aS)-3a-((R)-2-((4-chlorobenzyl)amino)-1-hydroxyethyl)-1-isopropyl-5a,5b,8,8,11a-pentamethyl-2-oxo-3,3a,4,5,5a,5b,6,7,7a,8,9,10,11,11a,11b,12,13,13a-octadecahydro-2H-cyclopenta[a]chrysen-9-yl)oxy)-3,3-dimethyl-5-oxopentanoic acid], the EC50 in the data set with HIV NL4-3 wt (setting [4]) was 5.1 nM.
On the same count and under the same terms, then `CC(C)C1=C2[C@H]3CC[C@@H]4[C@@]5(C)CC[C@H](OC(=O)CC(C)(C)C(=O)O)C(C)(C)[C@@H]5CC[C@@]4(C)[C@]3(C)CC[C@@]2(CCNCc2ccc(Cl)cc2)CC1=O` [Example 5, 4-(((3aR,5aR,5bR,7aR,9S,11aR,11bR,13aS)-3a-(2-((4-Chlorobenzyl)amino)ethyl)-1-isopropyl-5a,5b,8,8,11a-pentamethyl-2-oxo-3,3a,4,5,5a,5b,6,7,7a,8,9,10,11,11a,11b,12,13,13a-octadecahydro-2H-cyclopenta[a]chrysen-9-yl)oxy)-2,2-dimethyl-4-oxobutanoic acid], with 2.6 nM.
In the case of `CCN(Cc1ccccc1Cl)C[C@H](O)[C@@]12CC[C@]3(C)[C@H](CC[C@@H]4[C@@]5(C)CC[C@H](OC(=O)CC(C)(C)C(=O)O)C(C)(C)[C@@H]5CC[C@]43C)C1=C(C(C)C)C(=O)C2` [Example 49, 4-(((3aR,5aR,5bR,7aR,9S,11aR,11bR,13aS)-3a-((R)-2-((2-chlorobenzyl)(ethyl)amino)-1-hydroxyethyl)-1-isopropyl-5a,5b,8,8,11a-pentamethyl-2-oxo-3,3a,4,5,5a,5b,6,7,7a,8,9,10,11,11a,11b,12,13,13a-octadecahydro-2H-cyclopenta[a]chrysen-9-yl)oxy)-2,2-dimethyl-4-oxobutanoic acid], in the data set with HIV NL4-3 wt (setting [5]), the EC50 was found to be 21.8 nM.
Turning to `Cc1cn([C@H]2C[C@H](N=[N+]=[N-])[C@@H](CO)O2)c(=O)[nH]c1=O` [3′-azido-3′-deoxythymidine], the IC50 with HIV-1 (strain IIIB) fell in the range of 40 to 120 nM.
As to `CC(=O)N(Cc1ccc(Cl)cc1)C[C@H](O)[C@@]12CC[C@]3(C)[C@H](CC[C@@H]4[C@@]5(C)CC[C@H](OC(=O)CC(C)(C)C(=O)O)C(C)(C)[C@@H]5CC[C@]43C)C1=C(C(C)C)C(=O)C2` [Example 34, 4-(((3aR,5aR,5bR,7aR,9S,11aR,11bR,13aS)-3a-((R)-2-(N-(4-Chlorobenzyl)acetamido)-1-hydroxyethyl)-1-isopropyl-5a,5b,8,8,11a-pentamethyl-2-oxo-3,3a,4,5,5a,5b,6,7,7a,8,9,10,11,11a,11b,12,13,13a-octadecahydro-2H-cyclopenta[a]chrysen-9-yl)oxy)-2,2-dimethyl-4-oxobutanoic acid], the EC50 in the data set on HIV NL4-3 wt (setting [4]) amounted to 7.1 nM.
